Laboratory results taken from US20030224469A1, “Methods and kits for assays utilizing fluorescence polarization” (priority 2002, published 2003).
Where two headings read alike, the source gives them in different places.

Columns and labels:
[1] = biological target: T1, T-Cell Protein Tyrosine Phosphatase (TC PTP) (Homo sapiens, UniProt P17706); test: FP-based protein tyrosine phosphatase assay (dual color); assay type: biochemical
T1 construct: purchased New England Biolabs
T1 sequence (P17706 1-317 limits assumed): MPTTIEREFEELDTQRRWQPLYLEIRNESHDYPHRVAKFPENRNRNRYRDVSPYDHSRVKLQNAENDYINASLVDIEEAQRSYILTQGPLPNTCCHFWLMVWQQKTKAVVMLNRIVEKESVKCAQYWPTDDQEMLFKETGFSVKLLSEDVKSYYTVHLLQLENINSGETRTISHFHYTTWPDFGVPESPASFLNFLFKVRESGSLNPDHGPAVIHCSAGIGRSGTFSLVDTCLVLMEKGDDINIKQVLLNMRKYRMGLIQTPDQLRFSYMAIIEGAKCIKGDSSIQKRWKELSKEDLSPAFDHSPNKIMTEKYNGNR
Protocol: The enzymatic activity of T-Cell Protein Tyrosine Phosphatase (TC PTP) was measured in a dose-dependent manner by incubating different concentrations of TC PTP (New England Biolabs; Beverly, Mass.), from 0.05 U/μL to 0.0005 U/μL, with 50 μL of a mixture of an anti-phosphotyrosine antibody, a fluorescein-labeled phosphopeptide and a tetramethylrhodamine-labeled phosphopeptides. The final reaction volume was […]. Two control assays were performed. […] Fluorescence polarization measurements were performed using the appropriate excitation and emission filters appropriate for each fluorophore. Increasing concentrations of TC PTP result in an increased rate of dephosphorylation of the labeled phosphopeptides, which is indicated by a decrease in polarization (due to the inability of the dephosphorylated peptide to bind to the antibody).
In a black, 96-well plate (DYNEX; Chantilly, Va.), Na3VO4 (Sigma; St. Louis, Mo.) was serially diluted 2-fold into 24 wells from a starting concentration of 500 nM in a volume of 50 μL. TC PTP was then added to each well so that the final concentration of the enzyme would be 0.005 U/μL per assay. […] At the end of the incubation, 10 μL of 550 μM Na3VO4 was added to quench all of the reactions, and the polarization for each sample was measured on a TECAN Polarion using the appropriate excitation and emission filters appropriate for each fluorophore. […]

[2] = biological target: glucocorticoid receptor (GR) (Homo sapiens, UniProt P04150)
Sequence of glucocorticoid receptor (GR) (P04150 whole entry, species assumed): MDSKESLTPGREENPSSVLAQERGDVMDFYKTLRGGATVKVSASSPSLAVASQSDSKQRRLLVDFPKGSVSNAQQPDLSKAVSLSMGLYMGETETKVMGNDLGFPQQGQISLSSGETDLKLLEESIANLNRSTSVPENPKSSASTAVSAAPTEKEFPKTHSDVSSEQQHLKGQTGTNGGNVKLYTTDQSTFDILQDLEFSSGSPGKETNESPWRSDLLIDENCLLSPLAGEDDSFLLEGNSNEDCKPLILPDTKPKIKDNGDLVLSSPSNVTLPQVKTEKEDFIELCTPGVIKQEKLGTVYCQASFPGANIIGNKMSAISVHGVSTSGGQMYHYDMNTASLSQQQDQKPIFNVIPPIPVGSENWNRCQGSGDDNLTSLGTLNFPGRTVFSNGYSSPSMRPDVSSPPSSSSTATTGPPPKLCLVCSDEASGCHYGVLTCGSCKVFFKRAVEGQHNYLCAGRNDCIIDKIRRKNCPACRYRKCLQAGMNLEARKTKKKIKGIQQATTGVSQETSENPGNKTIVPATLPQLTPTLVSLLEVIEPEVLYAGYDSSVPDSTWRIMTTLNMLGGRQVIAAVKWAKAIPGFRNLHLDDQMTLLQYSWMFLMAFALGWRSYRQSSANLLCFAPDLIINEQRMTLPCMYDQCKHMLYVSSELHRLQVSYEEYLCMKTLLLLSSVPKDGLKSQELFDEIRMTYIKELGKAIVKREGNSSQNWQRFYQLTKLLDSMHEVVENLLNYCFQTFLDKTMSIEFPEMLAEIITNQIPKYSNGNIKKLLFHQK
Protocol: A non-labeled steroid (dexamethasone) was serially diluted in 10 mM potassium phosphate pH 7.4,20 mM Na2MoO4, 2% DMSO, 0.1 mM EDTA, 0.5 mM DTT buffer containing 0.1 mM stabilizing peptide. This steroid was used as a competitive binder to glucocorticoid receptor (GR). […] Control wells were also prepared without either unconjugated fluorescein or TMR present. As in Examples 1 and 2, two separate fluorescence polarization values were obtained for each sample using a green filter or a red filter.

Row | inhibition of TC PTP-dependent change in polarization ([1]; 50 μM Na3VO4) | IC50 ([1]; TC PTP 0.005 U/μL, 15 minutes incubation, nonlinear regression of semi-log plot) [nM] | fluorescence polarization ([2]; high concentrations of steroid competitor) | fluorescence polarization ([2]; low concentration of competitor) [mP] | Compound
1 | completely inhibited | 4 |  |  | [Na+].[Na+].[Na+].[O]=[V]([O-])([O-])[O-] [Na3VO4]
2 |  |  | about 60 mP | ~260 | dexamethasone [steroid competitor]
